Laboratory results: patent publication US10308643B2, “Heterocyclic compound” (Takeda Pharmaceutical Company Limited, priority 2015, dated 2019)

Columns and labels:
Format in all cases: biochemical
HDAC6 enzyme = target: T1, HDAC6 enzyme (Homo sapiens, UniProt Q9UBN7); experiment: HDAC1/6 Enzyme Inhibitory Assay (HDAC-Glo I/II Assay kit), HDAC6; details: 1 μM test compound; wells without enzyme = 100% inhibition; read-out: HDAC6 inhibitory rate (%) (1 μM)
T1 construct: transducing full length HDAC1 and HDAC6 genes into Sf-9 insect cells; GST; purchased SignalChem; host or cells: Sf-9 insect cells
T1 sequence (Q9UBN7 1-1215): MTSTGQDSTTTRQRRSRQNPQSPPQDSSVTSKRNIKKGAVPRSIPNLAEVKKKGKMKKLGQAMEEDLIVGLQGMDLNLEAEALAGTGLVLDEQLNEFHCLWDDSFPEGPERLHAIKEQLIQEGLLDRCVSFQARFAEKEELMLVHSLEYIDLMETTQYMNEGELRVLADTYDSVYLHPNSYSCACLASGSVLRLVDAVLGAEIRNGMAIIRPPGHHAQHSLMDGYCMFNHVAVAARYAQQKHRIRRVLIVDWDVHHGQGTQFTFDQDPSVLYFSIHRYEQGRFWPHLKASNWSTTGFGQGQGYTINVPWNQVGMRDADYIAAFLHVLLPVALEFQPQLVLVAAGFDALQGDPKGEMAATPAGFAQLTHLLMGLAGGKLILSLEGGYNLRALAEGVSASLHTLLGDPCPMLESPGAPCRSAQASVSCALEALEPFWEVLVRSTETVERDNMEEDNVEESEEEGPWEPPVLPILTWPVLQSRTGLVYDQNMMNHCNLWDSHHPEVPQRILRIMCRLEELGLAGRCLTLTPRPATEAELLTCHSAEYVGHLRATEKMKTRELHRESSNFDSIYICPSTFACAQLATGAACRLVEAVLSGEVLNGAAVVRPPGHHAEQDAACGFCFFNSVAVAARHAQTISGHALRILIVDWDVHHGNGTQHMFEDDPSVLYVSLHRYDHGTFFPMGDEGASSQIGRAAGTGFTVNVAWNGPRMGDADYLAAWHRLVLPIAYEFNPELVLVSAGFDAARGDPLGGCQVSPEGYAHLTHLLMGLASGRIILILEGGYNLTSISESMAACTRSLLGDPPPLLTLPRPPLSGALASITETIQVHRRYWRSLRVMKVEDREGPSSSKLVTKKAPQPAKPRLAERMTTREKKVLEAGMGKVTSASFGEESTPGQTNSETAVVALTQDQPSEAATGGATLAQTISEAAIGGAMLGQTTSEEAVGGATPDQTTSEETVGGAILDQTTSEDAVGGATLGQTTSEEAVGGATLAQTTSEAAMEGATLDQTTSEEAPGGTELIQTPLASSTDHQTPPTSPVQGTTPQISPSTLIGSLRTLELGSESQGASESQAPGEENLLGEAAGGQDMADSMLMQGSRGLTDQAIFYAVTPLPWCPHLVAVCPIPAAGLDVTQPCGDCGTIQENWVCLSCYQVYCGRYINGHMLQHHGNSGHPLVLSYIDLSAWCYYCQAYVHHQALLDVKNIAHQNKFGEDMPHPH
Outline: (§1)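 Luminescence readout (HDAC-Glo I/II) after 20 min RT reaction of GST-purified full-length HDAC1 or HDAC6 (Sf-9 expressed) with substrate-developer; enzyme and compound preincubated 60 min RT; buffer 24 mM Tris-HCl pH 7.5, 0.6 mM glutathione, 0.01% Tween-20; no-enzyme wells = 100% inhibition.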

HDAC1 enzyme = target: T2, HDAC1 enzyme (Homo sapiens, UniProt Q13547); experiment: HDAC1/6 Enzyme Inhibitory Assay (HDAC-Glo I/II Assay kit), HDAC1; details: 1 μM test compound; wells without enzyme = 100% inhibition; read-out: HDAC1 inhibitory rate (%) (1 μM)
T2 construct: transducing full length HDAC1 and HDAC6 genes into Sf-9 insect cells; GST; purchased SignalChem; host or cells: Sf-9 insect cells
Outline: as §1

HDAC9 enzyme = target: T3, HDAC9 enzyme (Homo sapiens, UniProt Q9UKV0); experiment: HDAC9 Enzyme Inhibitory Assay (HDAC-Glo class IIa); details: 1 μM test compound; wells without enzyme = 100% inhibition; read-out: HDAC9 inhibitory rate (%) (1 μM)
T3 construct: transducing full length HDAC9 gene into Sf-9 insect cells; made in house; host or cells: Sf-9 insect cells
Outline: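 Full-length human HDAC9 from Sf-9 cells, Ni-NTA purified, preincubated with compound for 60 min at room temperature in Tris-HCl pH 7.5 buffer (MgCl2, KCl, NaCl, glutathione, Tween-20). HDAC-Glo class IIa substrate-developer added; luminescence read after 20 min, with no-enzyme wells defining 100% inhibition.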

T3 sequence (Q9UKV0 whole entry, species assumed): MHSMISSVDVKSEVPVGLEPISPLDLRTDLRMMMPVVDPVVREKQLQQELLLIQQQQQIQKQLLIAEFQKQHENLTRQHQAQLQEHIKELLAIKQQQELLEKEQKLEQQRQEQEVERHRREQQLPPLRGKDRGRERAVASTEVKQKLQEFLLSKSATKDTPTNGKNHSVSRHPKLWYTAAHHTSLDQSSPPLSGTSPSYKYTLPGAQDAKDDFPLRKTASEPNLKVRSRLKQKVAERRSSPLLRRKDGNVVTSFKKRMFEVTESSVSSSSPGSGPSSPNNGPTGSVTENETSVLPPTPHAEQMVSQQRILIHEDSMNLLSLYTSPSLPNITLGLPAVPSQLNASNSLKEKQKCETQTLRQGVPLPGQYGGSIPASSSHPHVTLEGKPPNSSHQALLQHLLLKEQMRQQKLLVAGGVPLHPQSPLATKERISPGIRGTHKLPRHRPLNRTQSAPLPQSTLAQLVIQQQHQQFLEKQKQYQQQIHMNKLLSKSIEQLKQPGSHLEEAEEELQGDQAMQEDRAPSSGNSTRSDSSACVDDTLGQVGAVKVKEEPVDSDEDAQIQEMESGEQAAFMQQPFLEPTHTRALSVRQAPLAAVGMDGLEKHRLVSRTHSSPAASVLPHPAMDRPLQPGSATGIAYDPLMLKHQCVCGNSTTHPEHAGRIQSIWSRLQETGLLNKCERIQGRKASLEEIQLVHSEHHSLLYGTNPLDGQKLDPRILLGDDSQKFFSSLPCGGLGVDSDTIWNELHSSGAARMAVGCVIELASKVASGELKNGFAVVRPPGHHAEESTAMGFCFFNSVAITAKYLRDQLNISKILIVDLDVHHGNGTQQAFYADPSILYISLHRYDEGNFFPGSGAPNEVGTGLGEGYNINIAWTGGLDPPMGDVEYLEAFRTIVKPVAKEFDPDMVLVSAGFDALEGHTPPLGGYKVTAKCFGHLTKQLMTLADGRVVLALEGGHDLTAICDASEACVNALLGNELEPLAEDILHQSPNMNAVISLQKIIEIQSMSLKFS
T2 sequence (Q13547 whole entry): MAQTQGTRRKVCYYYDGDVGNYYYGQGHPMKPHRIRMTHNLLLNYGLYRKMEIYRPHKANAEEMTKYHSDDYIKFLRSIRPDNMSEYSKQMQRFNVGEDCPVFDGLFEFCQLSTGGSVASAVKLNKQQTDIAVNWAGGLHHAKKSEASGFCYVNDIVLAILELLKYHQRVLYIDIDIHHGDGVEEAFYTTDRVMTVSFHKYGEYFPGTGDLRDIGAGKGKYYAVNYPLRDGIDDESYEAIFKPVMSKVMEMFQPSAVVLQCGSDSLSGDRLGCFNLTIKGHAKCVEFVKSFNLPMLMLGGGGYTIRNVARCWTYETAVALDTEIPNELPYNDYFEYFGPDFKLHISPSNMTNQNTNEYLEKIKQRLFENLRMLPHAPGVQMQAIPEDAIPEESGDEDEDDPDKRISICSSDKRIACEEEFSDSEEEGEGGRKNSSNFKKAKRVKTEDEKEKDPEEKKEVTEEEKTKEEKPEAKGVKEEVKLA

SMILES	inhibition at 1 µM (HDAC6 enzyme)	inhibition at 1 µM (HDAC1 enzyme)	inhibition at 1 µM (HDAC9 enzyme)
O=C1CCCN1[C@@H]1CCCC[C@H]1N1Cc2ncc(-c3noc(C(F)(F)F)n3)cc2C1=O [Example 186, 6-((1R,2R)-2-(2-oxopyrrolidin-1-yl)cyclohexyl)-3-(5-(trifluoromethyl)-1,2,4-oxadiazol-3-yl)-6,7-dihydro-5H-pyrrolo[3,4-b]pyridin-5-one]	97%	26%	95%
O=C(N[C@@H]1CCCC[C@H]1N1Cc2ccc(-c3noc(C(F)(F)F)n3)cc2C1=O)N1CC(F)C1 [Example 187, 3-fluoro-N-((1R,2R)-2-(1-oxo-6-(5-(trifluoromethyl)-1,2,4-oxadiazol-3-yl)-1,3-dihydro-2H-isoindol-2-yl)cyclohexyl)azetidine-1-carboxamide]	99%	9%	29%
CN(C)C(=O)c1ccccc1N1Cc2ccc(-c3noc(C(F)(F)F)n3)cc2C1=O [Example 188, N,N-dimethyl-2-(1-oxo-6-(5-(trifluoromethyl)-1,2,4-oxadiazol-3-yl)-1,3-dihydro-2H-isoindol-2-yl)benzamide]	95%	10%	45%
O=C(N[C@@H]1CCOC[C@H]1N1Cc2ccc(-c3noc(C(F)(F)F)n3)cc2C1=O)[C@H]1CC1(F)F [Example 190, (1R)-2,2-difluoro-N-((3S,4R)-3-(1-oxo-6-(5-(trifluoromethyl)-1,2,4-oxadiazol-3-yl)-1,3-dihydro-2H-isoindol-2-yl)tetrahydro-2H-pyran-4-yl)cyclopropanecarboxamide]	100%	19%	84%
CC1(C(=O)N[C@@H]2CCOC[C@H]2N2Cc3ccc(-c4noc(C(F)(F)F)n4)cc3C2=O)COC1 [Example 192, 3-methyl-N-((3S,4R)-3-(1-oxo-6-(5-(trifluoromethyl)-1,2,4-oxadiazol-3-yl)-1,3-dihydro-2H-isoindol-2-yl)tetrahydro-2H-pyran-4-yl)oxetane-3-carboxamide]	99%	6%	40%
CC1(C(=O)N[C@H]2CCCC[C@@H]2N2Cc3ccc(-c4noc(C(F)(F)F)n4)cc3C2=O)COC1 [Example 193, 3-methyl-N-((1S,2S)-2-(1-oxo-6-(5-(trifluoromethyl)-1,2,4-oxadiazol-3-yl)-1,3-dihydro-2H-isoindol-2-yl)cyclohexyl)oxetane-3-carboxamide]	43%	4%	32%
CC1(C(=O)N[C@@H]2CCCC[C@H]2N2Cc3ccc(-c4noc(C(F)(F)F)n4)cc3C2=O)CNC1 [Example 194, 3-methyl-N-((1R,2R)-2-(1-oxo-6-(5-(trifluoromethyl)-1,2,4-oxadiazol-3-yl)-1,3-dihydro-2H-isoindol-2-yl)cyclohexyl)azetidine-3-carboxamide]	100%	3%	26%
CC(=O)N1CC(C)(C(=O)N[C@@H]2CCCC[C@H]2N2Cc3ccc(-c4noc(C(F)(F)F)n4)cc3C2=O)C1 [Example 195, 1-acetyl-3-methyl-N-((1R,2R)-2-(1-oxo-6-(5-(trif1uoromethyl)-1,2,4-oxadiazol-3-yl)-1,3-dihydro-2H-isoindol-2-yl)cyclohexyl)azetidine-3-carboxamide]	98%	1%	57%
CN1CC(C)(C(=O)N[C@@H]2CCCC[C@H]2N2Cc3ccc(-c4noc(C(F)(F)F)n4)cc3C2=O)C1 [Example 196, 1,3-dimethyl-N-((1R,2R)-2-(1-oxo-6-(5-(trifluoromethyl)-1,2,4-oxadiazol-3-yl)-1,3-dihydro-2H-isoindol-2-yl)cyclohexyl)azetidine-3-carboxamide]	101%	4%	22%
CC(C)(C)OC(=O)N1CC(C)(C(=O)N[C@@H]2CCCC[C@H]2N2Cc3ccc(-c4noc(C(F)(F)F)n4)cc3C2=O)C1 [Example 197, tert-butyl 3-methyl-3-(((1R,2R)-2-(1-oxo-6-(5-(trifluoromethyl)-1,2,4-oxadiazol-3-yl)-1,3-dihydro-2H-isoindol-2-yl)cyclohexyl)carbamoyl)azetidine-1-carboxylate]	100%	6%	48%
O=C(N[C@H]1CCOC[C@@H]1N1Cc2ccc(-c3noc(C(F)(F)F)n3)cc2C1=O)[C@@H]1CC1(F)F [Example 201, (1S)-2,2-difluoro-N-((3R,4S)-3-(1-oxo-6-(5-(trifluoromethyl)-1,2,4-oxadiazol-3-yl)-1,3-dihydro-2H-isoindol-2-yl)tetrahydro-2H-pyran-4-yl)cyclopropanecarboxamide]	98%	16%	86%
O=C(N[C@H]1CCOC[C@@H]1N1Cc2ccc(-c3noc(C(F)(F)F)n3)cc2C1=O)[C@H]1CC1(F)F [Example 202, (1R)-2,2-difluoro-N-((3R,4S)-3-(1-oxo-6-(5-(trifluoromethyl)-1,2,4-oxadiazol-3-yl)-1,3-dihydro-2H-isoindol-2-yl)tetrahydro-2H-pyran-4-yl)cyclopropanecarboxamide]	99%	13%	59%
O=C(N[C@@H]1CCOC[C@H]1N1Cc2ccc(-c3noc(C(F)(F)F)n3)cc2C1=O)C1CCOC1 (stereo partly drawn) [Example 205, N-((3S,4R)-3-(1-oxo-6-(5-(trifluoromethyl)-1,2,4-oxadiazol-3-yl)-1,3-dihydro-2H-isoindol-2-yl)tetrahydro-2H-pyran-4-yl)tetrahydrofuran-3-carboxamide]	99%	5%	52%
O=C(N[C@@H]1CCOC[C@H]1N1Cc2ccc(-c3noc(C(F)(F)F)n3)cc2C1=O)[C@@H]1CCOC1 [Example 206, (3R)-N-((3S,4R)-3-(1-oxo-6-(5-(trifluoromethyl)-1,2,4-oxadiazol-3-yl)-1,3-dihydro-2H-isoindol-2-yl)tetrahydro-2H-pyran-4-yl)tetrahydrofuran-3-carboxamide]	97%	5%	52%
O=C(N[C@@H]1CCOC[C@H]1N1Cc2ccc(-c3noc(C(F)(F)F)n3)cc2C1=O)[C@H]1CCOC1 [Example 208, (3S)-N-((3S,4R)-3-(1-oxo-6-(5-(trifluoromethyl)-1,2,4-oxadiazol-3-yl)-1,3-dihydro-2H-isoindol-2-yl)tetrahydro-2H-pyran-4-yl)tetrahydrofuran-3-carboxamide]	98%	4%	53%
O=C(N[C@H]1CCOC[C@@H]1N1Cc2ccc(-c3noc(C(F)(F)F)n3)cc2C1=O)[C@@H]1CCOC1 [Example 209, (3R)-N-((3R,4S)-3-(1-oxo-6-(5-(trifluoromethyl)-1,2,4-oxadiazol-3-yl)-1,3-dihydro-2H-isoindol-2-yl)tetrahydro-2H-pyran-4-yl)tetrahydrofuran-3-carboxamide]	48%	13%	51%
